Assay results reported in patent US20230293473A1, “THERAPEUTIC DRUG FOR DISEASE CAUSED BY INTESTINAL IMMUNE DISORDER” (KEIO UNIVERSITY, priority 2020, published 2023).

Key:
HVx mice = test: In vivo administration of bethanechol, GTS-21 or MLA to HVx mice; colonic APC and Treg phenotypes
Method: Bilateral or unilateral (left or right) subdiaphragmatic vagotomy was performed as previously reported (FIGS. 5c and 5d)^52. A midline incision was made to provide wide exposure of the upper abdominal organ in male mice anesthetized with the combination of medetomidine, midazolam, and butorphanol. The bilateral subdiaphragmatic trunks of vagal nerves along the esophagus were exposed and cut. In the sham operation group, these vagal trunks were exposed but not cut. Selective hepatic vagotomy (HVx) was performed as described (FIG. 7)^25. The ventral subdiaphragmatic vagal trunk was exposed as described above under anesthesia. […]
FIG. 3 The liver-brain-gut axis regulates colonic Treg homeostasis through muscarinic signaling in APC. a-d, WT and mAChR TKO mice were subjected to Sham or HVx. e, WT and mAchR TKO mice were subjected to Sham or HVx and injected additionally treated with bethanechol (BETH; i.p. 300 μg/day) every day. Phenotypes of colonic immune cell were analyzed at day 2 after surgery (n=5/group). a, Frequency of ALDH^+ cells among MHC-II^+ colonic APCs. […] Quantification (right panel). b, Aldh1a1 and Aldh1a2 mRNA expression in colonic APC. c, e, Frequency of Foxp3^+ cells among CD4^+ cells in the colon. d, Frequency of RORγt^+ cells among colonic Foxp3^+ Tregs. […]

[1] = test system: common hepatic branch of the vagus nerve; test: pERK immunostaining in nodose ganglion after capsaicin deafferentation of the common hepatic branch of the vagus nerve; type: in vivo, mice
Method: The hepatic branch of the vagal trunk was freed from the surrounding tissues by paraffin paper and then wrapped for 30 minutes with cotton bud soaked with vehicle (Tween 80: olive oil=1:9) alone or 10 mg/ml capsaicin dissolved in the vehicle solution. The cotton string was removed 30 minutes later and the abdominal incision was closed^28. pEKR1/2 and c-Fos expression were analyzed immunohistochemically as reported 1. DSS-treated mice were transcardially perfused with PBS including 4% paraformaldehyde and 0.2% picric acid under anesthesia. The nodose ganglions and brains were collected, post-fixed in the same fixative for 2 hours to overnight at 4° C. and then incubated in phosphate buffer containing 30% sucrose for 48 hours. Longitudinal sections (8 μm) of NGs were cut with 48 μm intervals using a precision cryostat (Leica Microsystems, IL). Coronal sections (40 μm) of hindbrain were cut with 120 μm intervals using a freezing microtome. Rabbit polyclonal antibody to pERK1/2 (1/500) and Alexa 488-conjugated goat anti-rabbit IgG (1/500) were used. Fluorescence images were acquired with BX50 microscope and DP50 digital camera (Olympus). […] Neurons immunoreactive to pERK1/2 and c-Fos in medial NTS were counted. […] Representative fluorescence images of Alexa Fluor 488^+ neuron (green) and DAPI (blue) in NG at 1 week after injection of WGA in liver (c) and quantification (d). […]

[2] = test system: hepatic vagal sensory afferents; test: Selective hepatic vagal afferent blockade by perivagal application of capsaicin; colonic Treg and APC analysis; type: in vivo, mice; conditions: perivagal capsaicin 10 mg/ml, 30 minutes; day 2
Method: The hepatic branch of the vagal trunk was freed from the surrounding tissues by paraffin paper and then wrapped for 30 minutes with cotton bud soaked with vehicle (Tween 80: olive oil=1:9) alone or 10 mg/ml capsaicin dissolved in the vehicle solution. The cotton string was removed 30 minutes later and the abdominal incision was closed^28. Aldehyde dehydrogenase (ALDH) activity was determined using ALDEFLUOR staining kit according to the manufacturer's protocol. In brief, cells were suspended at a concentration of 10^6 cells/ml in ALDEFLUOR assay buffer containing activated ALDEFLUOR substrate (final concentration of 1.5 μM) with or without the ALDH inhibitor diethylaminobenzaldehyde (DEAB) (final concentration of 15 μM) and incubated at 37° C. for 30 minutes. […] Phenotypic analysis of T cell and APC in colon was performed at day 2 after application of capsaicin (c, d, n=16/group; e, f, n=8/group). a, b, Representative fluorescence images of TRPV1 (red) and DAPI (blue) in NG (a) and Th4-DRG (b). […] Quantification (right panel). d, Frequency of RORγt^+ cells among colonic Foxp3^+ Tregs. […] TRPV1^+ nerves in spinal cord (Th4-7 and Th13) and colonic immune cells were analyzed at day 7 after administration. g, Fluorescent immunohistochemistry of TRPV1^+ neuron in spinal cord (bar: 200 μm). […]

colonic APCs = test: In vitro Treg induction assay: naive CD4+ cells with colonic APCs in the presence of muscarine; type: cell-based; conditions: colonic APCs from WT mice precultured with muscarine
Method: Naive CD4^+ cells were isolated from spleen in WT mice using naive CD4^+ T cell isolation kit. Naive CD4^+ cells (1×10^5) were cultured in RPMI-1640 medium supplemented with 10% FBS, 2 mM glutamine, 100 U/ml penicillin, 100 µg/ml streptomycin, and 55 μM 2-mercaptoethanol in 96 well plate.
a, Three-dimensional reconstruction of CX3CR1^+ APC (green) and enteric neurons (purple) in colon in mice. b, Three-dimensional reconstruction of MHCII^+ APC (green), enteric Tuj^+ neurons (purple), and Foxp3^+ Tregs (yellow). c, d, Anatomical diagram (c) and operative field (d) for subdiaphragmatic truncal vagotomy. e, f, Colonic T cell phenotypes in mice after VGx surgery. […] Quantification (n=6/group). […]

CC(C[N+](C)(C)C)OC(N)=O (stereo not drawn) [bethanechol]
frequency of pTregs (HVx mice; HVx WT mice, BETH i.p. 300 μg/day): increased
Aldh1a1 and Aldh1a2 expression in colonic APCs (HVx mice; HVx mice compared with sham-operated mice, BETH i.p. 300 μg/day for 2 days): restored

COc1cc(CNC(=O)CCCC/C=C/C(C)C)ccc1O [capsaicin]
number of pERK positive cells in the left NG [1]: significantly reduced
aldehyde dehydrogenase activity in APCs [2]: reduced
colonic Treg numbers [2]: reduced

C[C@@H]1O[C@H](C[N+](C)(C)C)C[C@H]1O [muscarine]
generation of Foxp3+ Tregs (colonic APCs): enhanced
